For test [1], the system named is bone marrow cells. Nature of the test: Proliferation of bone marrow cells in serum-free basal medium including IL-3. To be noted: for proliferation of bone marrow cells, times more than the control medium including IL-3: 2 week culture. Type of test: cell-based, human. The method, then:
Effects of BAPN on proliferation of bone marrow cells in serum-free basal medium including IL-3 which induces divisions of hematopoietic stem cells were inspected.
A bone marrow monocyte (Catalog number ARM07F) was purchased from Stem Cell Technology Co., Ltd. The bone marrow monocyte was obtained from a normal person, and CD34+ cells accounted for 1.6% of the total monocytes. The bone marrow cells were maintained in a maintaining medium. The maintaining medium was a IMDM including 50 ng/ml of SCF, 50 ng/ml of IL-6, 50 ng/ml of TPO, 50 ng/ml of FL, 10 μg/ml of recombinant human insulin, 100 μg/ml of bovine serum albumin (BSA), 200 μg/ml of human transferrin, 0.1 mM of 2-mercaptoethanol, and 2 mM of L-glutamine.
(§1) 100 μl of the basal medium with 20 μg/ml of IL-3, and 100 μl of the basal medium with 20 μg/ml of IL-3 and 100 μg/ml of BAPN were placed in each well of a 24 well plate, bone marrow cells were inoculated onto the media in the concentration of 1×10^5 cell/ml, and cultured for two weeks. The medium was exchanged every week. After the 2 week culture, adhesive cells were detached from the surface through trypsin treatment and the final cell concentration including floating cells was measured using a hemacytometer. In addition, the bottom of the 24 well plate was coated with collagen IV or fibronectin, and the effects of collagen IV or fibronectin were measured at the same time. In the coating, coating materials were dissolved to the concentration of from 5 to 50 μg/ml, the mixture was poured into the 24 wells to the amount of from 1 to 10 μg/cm^2 and reacted for one hour at room temperature.

In test [2] the test system is bone marrow cells. Nature of the test: Proliferation of bone marrow cells in serum-free basal medium. Type of test: cell-based, human. To be noted: for proliferation of bone marrow cells, times more than the control medium: 100 μg/ml BAPN, two week culture.
Text: Effects of β-aminopropionitrile (hereinafter referred to as BAPN) on proliferation of bone marrow cells in serum-free medium were inspected. The bone marrow cells used in Example 1 mostly consists of hematopoietic cells and is a population of cells including hematopoietic cells.
First, proliferations of bone marrow cells were inspected in a serum-free medium in the presence and absence of fibronectin and collagen IV which are extracellular matrix that is known to influence proliferation of bone marrow cells.
A bone marrow monocyte (Catalog number ARM07F) was purchased from Stem Cell Technology Co., Ltd. The bone marrow mononuclear cells was obtained from a normal person, and CD34+ cells accounted for 1.6% of the cells. The bone marrow cells were maintained in a maintenance medium. The maintenance medium was a IMDM including 50 ng/ml of SCF, 50 ng/ml of IL-6, 50 ng/ml of TPO, 50 ng/ml of FL, 10 μg/ml of recombinant human insulin, 100 μg/ml of bovine serum albumin (BSA), 200 μg/ml of human transferrin, 0.1 mM of 2-mercaptoethanol, and 2 mM of L-glutamine.
as §1, with “the basal medium, and 100” for “the basal medium with 20 μg/ml of IL-3, and 100”, “medium with 100 μg/ml” for “medium with 20 μg/ml of IL-3 and 100 μg/ml”, “After the two week culture,” for “After the 2 week culture,”, “same time. The coating materials” for “same time. In the coating, coating materials”

Take `N#CCCN` [BAPN, β-aminopropionitrile]: the “proliferation of bone marrow cells, times more than the control medium including IL-3” value in test [1] (100 μg/ml BAPN with IL-3, collagen-coated 24 well plate) stood at 2.6 times; in test [1] (100 μg/ml BAPN with IL-3, fibronectin-coated 24 well plate), 2.0 times; in test [1] (100 μg/ml BAPN with IL-3, uncoated 24 well plate) it was 3.1 times. Besides, the “effect on proliferation of bone marrow cells” value in test [1] (with or without extracellular matrix coating, with or without cytokine (IL-3)) is given as “promoted the proliferation of bone marrow cells”; in test [2] (whether or not the culture vessel was coated with extracellular matrix), “promoted the proliferation of bone marrow cells”. Also, the figures for the “proliferation of bone marrow cells, times more than the control medium” value in test [2] (collagen-coated 24 well plate), in test [2] (fibronectin-coated 24 well plate) and in test [2] (uncoated 24 well plate) were 5.1 times, 12.1 times and 5.4 times, respectively.

For the origin of these results see US20090117654A1, “MEDIUM FOR CULTURING HEM[…] AND A METHOD OF CULTURING HEM[…]” (SAMSUNG ELECTRONICS CO., LTD., priority 2006, published 2009).
